The results in this text go back to ChEMBL document CHEMBL1126299, “Synthesis and structure-activity relationships of cephalosporins with C-3' catechol-containing residues” (J Med Chem, 1992).

A short description of data set [1]: The compound was evaluated for area under the curve in marmosets. Format: ADME. To be noted: callithrix, in vivo.
A short description of data set [2]: The half life period in marmosets. To be noted: callithrix, in vivo. Format: ADME.
For data set [3], the target named is Beta-lactamase TEM (Escherichia coli) (UniProt P62593). The data set is described as follows: The dissociation constant of compound was tested for beta-Lactamase stability.
Data set [4] deals with Enterobacter cloacae. The experiment in a line: The compound was tested for minimum inhibitory concentration in Enterobacter cloacae, DR 401108 constitutive depressed type 1 lactamase producer. Format: functional.
The species entered for a further data set is Homo sapiens. The experiment in a line: Compound is evaluated for serum protein binding in human blood (protein binding in marmoset blood). Format: functional.
A short description of data set [5]: The compound was tested for % urinary recovery in marmosets at the dose of 3 mg/kg. Format: ADME, organism-based. Also on record: dose 3 mg/kg. Particulars: callithrix, urine, read-out: Recovery.
The test system of data set [6] is Citrobacter freundii. The data set is described as follows: microbe, parasite or virus in culture.
Description: Minimum inhibitory concentration in Citrobacter freundii, DR 382031 constitutive depressed type 1
Data set [7] deals with Citrobacter freundii. The data set is described as follows: microbe, parasite or virus in culture. The source holds these as a separate data set.
Description: Minimum inhibitory concentration in Citrobacter freundii, I+382010 inducible type 1 lactamase producer
In data set [8] the test system is Enterobacter cloacae. The experiment in a line: microbe, parasite or virus in culture.
Description: Minimum inhibitory concentration in Enterobacter cloacae, P99+ constitutive depressed type 1 lactamase producer
For data set [9], the system named is Enterobacter cloacae. The data set is described as follows: microbe, parasite or virus in culture. The source holds these as a separate data set.
Description: Minimum inhibitory concentration in Enterobacter cloacae, I+401029 inducible type 1 lactamase producer
In data set [10] the test system is Enterobacter cloacae. The experiment in a line: microbe, parasite or virus in culture. This is another data set of the same source.
Description: Minimum inhibitory concentration in Enterobacter cloacae, P99- inducible type 1 lactamase producer
Data set [11] concerns Pseudomonas aeruginosa. The data set is described as follows: microbe, parasite or virus in culture.
Description: Minimum inhibitory concentration in Pseudomonas aeruginosa, 18S inducible type 1 lactamase producer
For data set [12], the system named is Pseudomonas aeruginosa. The experiment in a line: microbe, parasite or virus in culture. The source holds these as a separate data set.
Description: Minimum inhibitory concentration in Pseudomonas aeruginosa, 18SH constitutive depressed type 1 lactamase producer
The test system of data set [13] is Pseudomonas aeruginosa. The data set is described as follows: microbe, parasite or virus in culture. This is another data set of the same source.
Description: Minimum inhibitory concentration in Pseudomonas aeruginosa,799WT parent organism
Data set [14] has as its system Providencia stuartii. The data set is described as follows: microbe, parasite or virus in culture.
Description: Minimum inhibitory concentration in Pseudomonas stuartii, DR 442049 constitutive depressed type 1 lactamase producer
Data set [15] concerns Providencia stuartii. The data set is described as follows: microbe, parasite or virus in culture. The source holds these as a separate data set.
Description: Minimum inhibitory concentration in Pseudomonas stuartii, I+442019 inducible type 1 lactamase producer
Data set [16] deals with Pseudomonas aeruginosa. The experiment in a line: microbe, parasite or virus in culture. This is another data set of the same source.
Description: Minimum inhibitory concentration in Pseudomonas aeruginosa,799/61 permeability mutant
In data set [17] the test system is Staphylococcus aureus. The experiment in a line: microbe, parasite or virus in culture.
Description: The compound was tested for minimum inhibitory concentration in Staphylococcus aureus,147N penicillin sensitive Staphylococcus aureus
Data set [18] concerns Enterobacter cloacae. The data set is described as follows: microbe, parasite or virus in culture. This is another data set of the same source.
Description: Minimum inhibitory concentration in Enterobacter cloacae, DR 401108 constitutive depressed type 1 lactamase producer
Data set [19] has as its system Escherichia coli. The data set is described as follows: microbe, parasite or virus in culture.
Description: In vitro minimum inhibitory concentration against Escherichia coli (DC0 parent organism).
In data set [20] the test system is Escherichia coli. The data set is described as follows: microbe, parasite or virus in culture. This is another data set of the same source.
Description: In vitro minimum inhibitory concentration against Escherichia coli (DC2 permeability mutant).
Data set [21] deals with Pseudomonas aeruginosa. The data set is described as follows: microbe, parasite or virus in culture. The source holds these as a separate data set.
Description: In vitro minimum inhibitory concentration against Pseudomonas aeruginosa (PU21).
Data set [22] deals with Staphylococcus aureus. The data set is described as follows: microbe, parasite or virus in culture. This is another data set of the same source.
Description: The compound was tested for minimum inhibitory concentration in Staphylococcus aureus Oxford penicillin sensitive Staphylococcus aureus
Data set [23] concerns Pseudomonas aeruginosa. The data set is described as follows: The compound was tested for minimum inhibitory concentration in Pseudomonas aeruginosa,799/61 permeability mutant. Format: functional.
Data set [24] relates to Citrobacter freundii. The experiment in a line: The compound was tested for minimum inhibitory concentration in Citrobacter freundii, DR 382031 constitutive depressed type 1. Format: functional.
The test system of data set [25] is Citrobacter freundii. The data set is described as follows: The compound was tested for minimum inhibitory concentration in Citrobacter freundii,I+382010 inducible type 1 lactamase producer. Format: functional.
The test system of data set [26] is Enterobacter cloacae. The data set is described as follows: The compound was tested for minimum inhibitory concentration in Enterobacter cloacae,I+401029 inducible type 1 lactamase producer. Format: functional.
Data set [27] has as its system Pseudomonas aeruginosa. The experiment in a line: The compound was tested for minimum inhibitory concentration in Pseudomonas aeruginosa,799WT parent organism. The class given is functional.
In data set [28] the test system is Providencia stuartii. The experiment in a line: The compound was tested for minimum inhibitory concentration in Pseudomonas stuartii,I+442019 inducible type 1 lactamase producer. Format: functional.
A short description of data set [29]: The compound was evaluated for area under the curve. The class given is ADME.
Data set [30] can be described thus: The half life period was tested. The class given is ADME.

Each structure is given as a SMILES string. Converted amounts (≈) assume the structure as drawn.

Beta-lactamase TEM (Escherichia coli), sequence (P62593 whole entry): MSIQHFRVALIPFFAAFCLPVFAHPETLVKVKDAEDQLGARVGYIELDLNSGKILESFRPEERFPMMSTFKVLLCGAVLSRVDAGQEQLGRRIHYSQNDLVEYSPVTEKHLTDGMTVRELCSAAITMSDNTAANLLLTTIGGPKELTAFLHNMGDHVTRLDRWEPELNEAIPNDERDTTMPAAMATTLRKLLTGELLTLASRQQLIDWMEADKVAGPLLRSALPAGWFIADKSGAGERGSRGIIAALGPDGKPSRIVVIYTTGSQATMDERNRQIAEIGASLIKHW

In general, half-life refers to the time needed for the level to fall by half in the phase considered. Low readings indicate fast loss, high ones slow loss. In data set [1], `CC(C)(O/N=C(\C(=O)N[C@@H]1C(=O)N2C(C(=O)O)=C(CNC(=O)c3cc(Cl)c(O)c(O)c3Cl)CSC12)c1csc(N)n1)C(=O)O` (some centres undefined) showed an AUC of 461 mg/h/L. In [2], this compound had a half-life of 8.22 h. Moreover, in data set [3], the pKa was 6.3. Also, the MIC was determined as 4 µg/mL (≈ 5.8 µM) against Enterobacter cloacae [4]; 2 µg/mL (≈ 2.9 µM) against Citrobacter freundii [6]; 0.008 µg/mL (≈ 0.0116 µM) against Citrobacter freundii [7]; 4 µg/mL (≈ 5.8 µM) in the data set on Enterobacter cloacae [8]; 0.008 µg/mL (≈ 0.0116 µM) with Enterobacter cloacae [9]; 0.03 µg/mL (≈ 0.0435 µM) in the data set on Enterobacter cloacae [10]. Besides, the MIC came out at 0.008 µg/mL (≈ 0.0116 µM) with Pseudomonas aeruginosa [11]; 0.015 µg/mL (≈ 0.0218 µM) in the data set with Pseudomonas aeruginosa [12]; 0.008 µg/mL (≈ 0.0116 µM) in the data set with Pseudomonas aeruginosa [13]; 1 µg/mL (≈ 1.45 µM) against Providencia stuartii [14]; 0.06 µg/mL (≈ 0.087 µM) against Providencia stuartii [15]; 0.008 µg/mL (≈ 0.0116 µM) with Pseudomonas aeruginosa [16]. Moreover, in the data set listed under Homo sapiens, the Activity is on record as 98.7%. In addition, the dose excreted in data set [5] stood at 16.2%.
In turn, `CC(C)(O/N=C(\C(=O)N[C@@H]1C(=O)N2C(C(=O)O)=C(CNC(=O)c3ccc(O)c(O)c3)CSC12)c1csc(N)n1)C(=O)O` (some centres undefined) gave an AUC in data set [1] of 27.2 mg/h/L. The half-life in data set [2] is 1.25 h. Further, the pKa in data set [3] turned out to be 8.5. For the same compound, in the data set filed under Homo sapiens, the Activity was determined as 96.3%. Besides, in [5], the dose excreted came to 44.8%. Also, the MIC was 16 µg/mL (≈ 25.8 µM) in the data set with Staphylococcus aureus [17]; 16 µg/mL (≈ 25.8 µM) in the data set with Citrobacter freundii [6]; 0.03 µg/mL (≈ 0.0483 µM) against Citrobacter freundii [7]; over 128 µg/mL against Enterobacter cloacae [18]; 0.008 µg/mL (≈ 0.0129 µM) in the data set on Escherichia coli [19]; 16 µg/mL (≈ 25.8 µM) against Enterobacter cloacae [8]. For the same compound, the MIC is 0.125 µg/mL (≈ 0.201 µM) with Enterobacter cloacae [9]; 0.125 µg/mL (≈ 0.201 µM) against Enterobacter cloacae [10]; 0.008 µg/mL (≈ 0.0129 µM) in the data set with Escherichia coli [20]; 0.008 µg/mL (≈ 0.0129 µM) with Pseudomonas aeruginosa [11]; 0.015 µg/mL (≈ 0.0242 µM) with Pseudomonas aeruginosa [21]; 0.06 µg/mL (≈ 0.0967 µM) in the data set on Pseudomonas aeruginosa [12]. The MIC against Pseudomonas aeruginosa [13] worked out at 0.008 µg/mL (≈ 0.0129 µM); in the data set with Providencia stuartii [14] it was 1 µg/mL (≈ 1.61 µM); against Providencia stuartii [15], 0.25 µg/mL (≈ 0.403 µM); in the data set on Staphylococcus aureus [22], 8 µg/mL (≈ 12.9 µM); in the data set on Pseudomonas aeruginosa [16], 0.008 µg/mL (≈ 0.0129 µM).
Take `CC(C)(O/N=C(\C(=O)N[C@@H]1C(=O)N2C(C(=O)O)=C(CNS(=O)(=O)c3ccc(O)c(O)c3)CSC12)c1csc(N)n1)C(=O)O` (some centres undefined): the MIC with Pseudomonas aeruginosa [23] came to 0.008 µg/mL (≈ 0.0122 µM); in the data set with Citrobacter freundii [6] it was 2 µg/mL (≈ 3.05 µM); against Citrobacter freundii [7] it was 0.015 µg/mL (≈ 0.0228 µM); against Enterobacter cloacae [18], 2 µg/mL (≈ 3.05 µM); in the data set on Enterobacter cloacae [8] it was 2 µg/mL (≈ 3.05 µM); against Enterobacter cloacae [9] it was 0.03 µg/mL (≈ 0.0457 µM). In addition, the MIC is 0.125 µg/mL (≈ 0.19 µM) against Enterobacter cloacae [10]; 0.015 µg/mL (≈ 0.0228 µM) with Pseudomonas aeruginosa [11]; 0.125 µg/mL (≈ 0.19 µM) in the data set on Pseudomonas aeruginosa [12]; 0.008 µg/mL (≈ 0.0122 µM) against Pseudomonas aeruginosa [13]; 8 µg/mL (≈ 12.2 µM) against Providencia stuartii [14]; 0.5 µg/mL (≈ 0.761 µM) against Providencia stuartii [15]. In addition, in the data set “physchem”, the pKa worked out at 8.
`CC(C)(O/N=C(\C(=O)N[C@@H]1C(=O)N2C(C(=O)O)=C(CNC(=O)c3cnc4cc(O)c(O)cc4c3O)CSC12)c1csc(N)n1)C(=O)O` (some centres undefined): the MIC in the data set with Citrobacter freundii [24] worked out at 0.125 µg/mL (≈ 0.182 µM); with Citrobacter freundii [25], 0.008 µg/mL (≈ 0.0116 µM); with Enterobacter cloacae [26] it was 0.03 µg/mL (≈ 0.0436 µM); with Pseudomonas aeruginosa [23] it was 0.008 µg/mL (≈ 0.0116 µM); in the data set on Pseudomonas aeruginosa [27], 0.008 µg/mL (≈ 0.0116 µM); with Providencia stuartii [28] it was 0.03 µg/mL (≈ 0.0436 µM). The MIC against Enterobacter cloacae [18] was found to be 1 µg/mL (≈ 1.45 µM); with Enterobacter cloacae [8], 0.06 µg/mL (≈ 0.0873 µM); in the data set with Enterobacter cloacae [10], 0.03 µg/mL (≈ 0.0436 µM); against Pseudomonas aeruginosa [11], 0.008 µg/mL (≈ 0.0116 µM); in the data set with Pseudomonas aeruginosa [12], 0.008 µg/mL (≈ 0.0116 µM); against Providencia stuartii [14], 2 µg/mL (≈ 2.91 µM).
`CC(C)(O/N=C(\C(=O)N[C@@H]1C(=O)N2C(C(=O)[O-])=C(C[n+]3ccccc3)CS[C@H]12)c1csc(N)n1)C(=O)O` [CEFTAZIDIME] gave an AUC in data set [29] of 14 mg/h/L. Further, the half-life in data set [30] was 0.7 h. Further, the MIC with Citrobacter freundii [6] amounted to 128 µg/mL (≈ 234 µM); against Citrobacter freundii [7] it was 0.125 µg/mL (≈ 0.229 µM); against Pseudomonas aeruginosa [11] it was 2 µg/mL (≈ 3.66 µM); against Pseudomonas aeruginosa [13], 0.125 µg/mL (≈ 0.229 µM); against Providencia stuartii [14] it was 4 µg/mL (≈ 7.32 µM); against Providencia stuartii [15] it was 0.25 µg/mL (≈ 0.457 µM). For the same compound, the MIC against Pseudomonas aeruginosa [16] worked out at 0.008 µg/mL (≈ 0.0146 µM).
On to `CC(C)(O/N=C(\C(=O)N[C@@H]1C(=O)N2C(C(=O)O)=C(CNC(=O)c3cc(O)c4cc(O)c(O)cc4n3)CSC12)c1csc(N)n1)C(=O)O` (some centres undefined), for which the MIC in the data set on Pseudomonas aeruginosa [23] worked out at 0.06 µg/mL (≈ 0.0873 µM); with Pseudomonas aeruginosa [27], 0.008 µg/mL (≈ 0.0116 µM); against Enterobacter cloacae [18], 4 µg/mL (≈ 5.82 µM); in the data set with Enterobacter cloacae [8] it was 16 µg/mL (≈ 23.3 µM); in the data set on Enterobacter cloacae [9], 0.5 µg/mL (≈ 0.727 µM); against Enterobacter cloacae [10], 0.06 µg/mL (≈ 0.0873 µM). For the same compound, the MIC against Pseudomonas aeruginosa [11] was 0.008 µg/mL (≈ 0.0116 µM); against Pseudomonas aeruginosa [21] it was 2 µg/mL (≈ 2.91 µM); against Pseudomonas aeruginosa [12] it was 0.125 µg/mL (≈ 0.182 µM); in the data set on Providencia stuartii [14] it was 16 µg/mL (≈ 23.3 µM); with Providencia stuartii [15], 0.008 µg/mL (≈ 0.0116 µM).
